Assay results from paper PMC10733349, “Synthesis and in-vitro anti-proliferative with antimicrobial activity of new coumarin containing heterocycles hybrids” (Scientific Reports, 2023).
≈ marks a conversion by molar mass, not a printed value. Where “and” joins values, the source holds several entries; their conditions need not be identical. Equal entries are not always repeated.

Columns and labels:
Candida albicans = assay: Antimicrobial microplate assay (MIC), C. albicans; assay type: cell-based; details: two values per compound
From the text: (§1) Microbial strains: Escherichia coli, pseudomonas aeruginosa, Staphylococcus aureus, Streptococcus mutans and Candida albicans were collected from the microbial culture collection of Biopharmaceutical Products Research Department, Genetic Engineering and Biotechnology Research Institute, SRTA-City, New Borg El-Arab city, Alexandria, Egypt.
(§2) The antimicrobial activity of coumarin hybrids samples were checked against different multiple drug resistant microorganisms (Escherichia coli, pseudomonas aeruginosa, Staphylococcus aureus and Streptococcus mutans and Candida albicans) using various concentrations (30 to 100 µM). An aliquot of 100.0 µl of each sample concentration was added to an equal volume of each microbial growth dilution (about 10^6 CFU/ml) and inoculated into 96 well plate. Furthermore, 100.0 µl of LB media was added to 100.0 µl of microbial growth to set as the negative control group. After that, the inoculated plates were incubated overnight at 37 °C then, the microbial turbidity was measured using automated ELIZA microplate reader (BINDER BIOTECK E LX 800) adjusted at 620 nm. The microbial inhibition percentage after treatments were quantified using the following equation:1 Inhibition percentage=A-A1/A0×100. where, A: the treatment group absorbance, A1: the blank absorbance, and A0: the control group absorbance.

CaCo-2 cell line = assay: MTT anti-proliferative assay, CaCo-2; assay type: cell-based, Human; details: for IC50: CaCo-2, MTT, 2 days; for Selective index: SI = IC50 normal cells (WISH)/IC50 CaCo-2
From the text: (§3) Cell lines; WISH cell line (Human amnion-derived normal epithelial cells, CCL-25), MDA-MB-231 cell line (Human, mammary gland/breast adenocarcinoma, HTB-26), CaCo-2 cell line (Human Colorectal adenocarcinoma, epithelial cells, HTB-37), A549 cell line (Human Lung adenocarcinoma, epithelial cells, CCL-185) cell lines and HepG-2 (liver hepatocellular carcinoma, HEPG2, HB-8065) were obtained from ATCC, originally with license and serial numbers as mentioned.
(§4) The safety assays of coumarin hybrids on noncancerous cell lines and their anticancer effects on cancerous cells were gauged utilizing MTT-assay (Promega) in accordance with the instruction protocol. Starting from 60 to 200 µM, serial dilutions of coumarin hybrids were prepared in sterile DMSO to be treated cell lines at final concentrations 30 to 100 µM. The treated cells were incubated for 2 days, and the cellular cytotoxicity was detected by quantifying the solubilized formazan in DMSO at 570 nm. The inhibition concentration of 50 (IC50) was calculated from the cytotoxicity% curve using GraphPad prism 9.
(§5) Cancer cell selectivity index of Coumarin hybrids samples were measured as explained by, with a minor modification; (SI = IC50nc/IC50cc), where IC50nc refers to the value of IC50 of the coumarin hybrids compounds on normal cells, while IC50cc refers to the IC50 of the coumarin hybrids compounds on cancer cell line.

MDA-MB-231 cell line = assay: MTT anti-proliferative assay, MDA-MB-231; assay type: cell-based, Human; details: for IC50: MDA-MB-231, MTT, 2 days; for Selective index: SI = IC50 normal cells (WISH)/IC50 MDA-MB-231
From the text: as §3, §4, §5

Escherichia coli = assay: Antimicrobial microplate assay (MIC), E. coli; assay type: cell-based; details: two values per compound
From the text: as §1, §2

Staphylococcus aureus = assay: Antimicrobial microplate assay (MIC), S. aureus; assay type: cell-based; details: Staph. aureus, two values per compound
From the text: as §1, §2

A549 cell line = assay: MTT anti-proliferative assay, A549; assay type: cell-based, Human; details: for IC50: Homo sapiens, A549, 48 h, A549, MTT, 2 days; for Selective index: SI = IC50 normal cells (WISH)/IC50 A549
From the text: as §3, §4, §5

WISH cell line = assay: MTT safety assay on WISH normal cells; assay type: cell-based, Human; details: 2 days
From the text: as §3, §4

HepG-2 = assay: MTT anti-proliferative assay, HepG-2; assay type: cell-based, human; details: for IC50: HepG-2, MTT, 2 days; for Selective index: SI = IC50 normal cells (WISH)/IC50 HepG-2
From the text: as §3, §4, §5

Streptococcus mutans = assay: Antimicrobial microplate assay (MIC), S. mutans; assay type: cell-based; details: two values per compound
From the text: as §1, §2

pseudomonas aeruginosa = assay: Antimicrobial microplate assay (MIC), P. aeruginosa; assay type: cell-based
From the text: as §1, §2

SMILES | MIC (Candida albicans; Candida albicans) [µM] | MIC (Candida albicans) | IC50 (CaCo-2 cell line; Homo sapiens, Caco-2, 48 h) [µM] | IC50 (MDA-MB-231 cell line; Homo sapiens, MDA-MB-231, 48 h) [µM] | MIC (Escherichia coli; Escherichia coli) [µM] | MIC (Escherichia coli) [µM] | MIC (Staphylococcus aureus) [µM] | MIC (Staphylococcus aureus; Staphylococcus aureus) [µM] | IC50 (A549 cell line) [µM] | MIC (Streptococcus mutans; Streptococcus mutans) [µM] | MIC (Streptococcus mutans) | Selective index (CaCo-2 cell line) | Selective index (MDA-MB-231 cell line) | Selective index (A549 cell line) | IC50 (WISH cell line; Homo sapiens, 48 h) [µM] | IC50 (HepG-2; Homo sapiens, HepG2, 48 h) [µM] | Selective index (HepG-2) | also measured
O=C(NNc1ccnc2cc(Cl)ccc12)c1cc2ccccc2oc1=O [7a, N'-(7-Chloroquinolin-4-yl)-2-oxo-2H-chromene-3-carbohydrazide] | 62 (≈ 22.7 µg/mL) | 61 µM (≈ 22.3 µg/mL) | 57.1 | 211 | 29 (≈ 10.6 µg/mL) | 28 (≈ 10.2 µg/mL) | 31 (≈ 11.3 µg/mL) | 30 (≈ 11 µg/mL) | 51.7 | 248 (≈ 90.7 µg/mL) | 246 µM (≈ 90 µg/mL) | 1.38 and 1.39 | 0.3752 | 1.5 and 1.533 | 79.3 | 75.4 | 1.051 | melting point: 294 to 296 °C
O=C(Nc1ccc(Nc2ccnc3cc(Cl)ccc23)cc1)c1cc2ccccc2oc1=O [7d, N-(4-((7-Chloroquinolin-4-yl)amino)phenyl)-2-oxo-2H-chromene-3-carboxamide] | 62 (≈ 27.4 µg/mL) | 60 µM (≈ 26.5 µg/mL) | 51.6 | 103 | 46 (≈ 20.3 µg/mL) | 45 (≈ 19.9 µg/mL) | 30 (≈ 13.3 µg/mL) | 29 (≈ 12.8 µg/mL) |  | 130 (≈ 57.4 µg/mL) | 132 µM (≈ 58.3 µg/mL) | 2.666 | 1.351 | 0.67 and 0.6789 | 138 | 82.8 | 1.67 and 1.671 | IC50 (CaCo-2 cell line): 52 µM; IC50 (HepG-2): 82.8 µM
O=C(Nc1ccc(Cc2ccc(Nc3ccnc4cc(Cl)ccc34)cc2)cc1)c1cc2ccccc2oc1=O [7e, N-(4-(4-((7-Chloroquinolin-4-yl)amino)benzyl)phenyl)-2-oxo-2H-chromene-3-carboxamide] | 25 (≈ 13.3 µg/mL) | 26 µM (≈ 13.8 µg/mL) | 86.3 | 70.5 | 19 (≈ 10.1 µg/mL) | 16 (≈ 8.51 µg/mL) | 24 (≈ 12.8 µg/mL) | 25 (≈ 13.3 µg/mL) | 152 | 160 (≈ 85.1 µg/mL) | 162 µM (≈ 86.2 µg/mL) | 1.079 | 1.32 | 0.6129 | 93.1 | 351 | 0.2658 | 
O=c1ccc2ccccc2o1 [Ct, coumarin] | 30 (≈ 4.38 µg/mL) | 29 µM (≈ 4.24 µg/mL) | 99.5 | 111 | 59 (≈ 8.62 µg/mL) | 58 (≈ 8.48 µg/mL) | 63 (≈ 9.21 µg/mL) | 62 (≈ 9.06 µg/mL) | 260 | 240 (≈ 35.1 µg/mL) | 241 µM (≈ 35.2 µg/mL) | 1.701 | 1.599 | 0.6915 | 176 | 232 | 0.7613 | 
COc1cccc2c1C(=O)c1c(O)c3c(c(O)c1C2=O)C[C@@](O)(C(=O)CO)C[C@@H]3O[C@H]1C[C@H](N)[C@H](O)[C@H](C)O1 [DOX, doxorubicin, reference compound] |  |  | 2.91 | 0.655 |  |  |  |  | 3.78 |  |  | 0.6148 | 1.954 | 0.7653 | 1.76 | 1.18 | 1.653 | 
O=C(O)c1cc2ccccc2oc1=O [compound 1, coumarin-3-carboxylic acid, reference compound] | 10 (≈ 1.9 µg/mL) | 9.8 µM (≈ 1.86 µg/mL) | 1110 | 132 | 20 (≈ 3.8 µg/mL) | 21.76 (≈ 4.14 µg/mL) | 8.5 (≈ 1.62 µg/mL) | 8 (≈ 1.52 µg/mL) | 351 | 17 (≈ 3.23 µg/mL) | 16.65 µM (≈ 3.17 µg/mL) | 0.3027 | 2.521 | 0.9497 | 334 | 924 | 0.3617 | IC50 (WISH cell line): 334 µM

The next lines start with results.

MIC (Candida albicans; Candida albicans) [µM] | MIC (Candida albicans) | IC50 (CaCo-2 cell line; Homo sapiens, Caco-2, 48 h) [µM] | IC50 (MDA-MB-231 cell line; Homo sapiens, MDA-MB-231, 48 h) [µM] | MIC (Escherichia coli; Escherichia coli) [µM] | MIC (Escherichia coli) [µM] | MIC (Staphylococcus aureus) [µM] | MIC (Staphylococcus aureus; Staphylococcus aureus) [µM] | IC50 (A549 cell line) [µM] | MIC (Streptococcus mutans; Streptococcus mutans) [µM] | MIC (Streptococcus mutans) | SMILES | Selective index (CaCo-2 cell line) | Selective index (MDA-MB-231 cell line) | Selective index (A549 cell line) | IC50 (WISH cell line; Homo sapiens, 48 h) [µM] | IC50 (HepG-2; Homo sapiens, HepG2, 48 h) [µM] | Selective index (HepG-2) | also measured
28 (≈ 11 µg/mL) | 27 µM (≈ 10.6 µg/mL) | 52.8 | 154 | 45 (≈ 17.7 µg/mL) | 43 (≈ 16.9 µg/mL) | 22 (≈ 8.66 µg/mL) | 20 (≈ 7.88 µg/mL) | 54.8 | 100 (≈ 39.4 µg/mL) | 103 µM (≈ 40.6 µg/mL) | O=C(NCCNc1ccnc2cc(Cl)ccc12)c1cc2ccccc2oc1=O [7b, N-(2-((7-Chloroquinolin-4-yl)amino)ethyl)-2-oxo-2H-chromene-3-carboxamide] | 1.76 and 1.764 | 0.6038 | 1.6 and 1.695 | 92.9 | 88.7 | 1.049 | IC50 (CaCo-2 cell line): 52.8 µM; melting point: 274 to 276 °C
31 (≈ 12.6 µg/mL) | 30 µM (≈ 12.2 µg/mL) | 57.3 | 51 | 125 (≈ 51 µg/mL) | 126 (≈ 51.4 µg/mL) | 29 (≈ 11.8 µg/mL) | 28 (≈ 11.4 µg/mL) | 97.4 | 152 (≈ 62 µg/mL) | 150 µM (≈ 61.2 µg/mL) | O=C(NCCCNc1ccnc2cc(Cl)ccc12)c1cc2ccccc2oc1=O [7c, N-(3-((7-Chloroquinolin-4-yl)amino)propyl)-2-oxo-2H-chromene-3-carboxamide] | 1.969 | 2.20 and 2.21 | 1.155 | 112 | 133 | 0.8456 | IC50 (MDA-MB-231 cell line): 51 µM
 |  |  |  |  |  | 3.2 (≈ 1.31 µg/mL) | 3.2 to 66 (≈ 1.31 to 27 µg/mL) |  | 3.2 to 66 (≈ 1.31 to 27 µg/mL) | 5 µM and 5.5 µM | O=C(NCCNc1c2ccccc2nc2ccccc12)c1cc2ccccc2oc1=O [10b, N-(2-(Acridin-9-ylamino)ethyl)-2-oxo-2H-chromene-3-carboxamide] |  |  |  |  |  |  | MIC (pseudomonas aeruginosa): 14.8 µM (≈ 6.06 µg/mL)
 |  |  | 109 |  |  |  |  | 130 |  |  | O=C(NCCCNc1c2ccccc2nc2ccccc12)c1cc2ccccc2oc1=O [10c, N-(3-(Acridin-9-ylamino)propyl)-2-oxo-2H-chromene-3-carboxamide] | 0.77 | 0.8462 |  | 56.7 | 107 | 0.5533 | IC50 (CaCo-2 cell line): 56.7 µM; IC50 (CaCo-2 cell line; listed as 10): 145 µM; Selective index (CaCo-2 cell line; listed as 10): 0.7785; MIC (pseudomonas aeruginosa): 15.4 µM (≈ 6.52 µg/mL); melting point: 261 to 263 °C
 | 0.0011 µM and 0.0014 µM |  |  |  |  |  |  |  |  |  | Cn1c2nc3ccccc3c-2c(NCCNC(=O)c2cc3ccccc3oc2=O)c2ccccc21 [13b, N-(2-((5-Methyl-5H-indolo[2,3, b]quinolin-11-yl)amino)ethyl)-2-oxo-2H-chromene-3-carboxamide] |  |  |  |  |  |  | 
 |  | 84.8 | 89.9 |  |  |  |  | 65 |  |  | Cn1c2nc3ccccc3c-2c(NCCCNC(=O)c2cc3ccccc3oc2=O)c2ccccc21 [13c, N-(3-((5-methyl-5H-indolo[2,3-b]quinolin-11-yl)amino)propyl)-2-oxo-2H-chromene-3-carboxamide] |  |  |  | 95.9 | 71 |  | 
